Assay results taken from PubChem BioAssay AID1645865 (Buhrlage Lab, Dana-Farber Cancer Institute and Novartis …, 2021).
The source made the active and inactive calls.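 Rule for the calls: active = maximal inhibition of the USP30 enzyme reaching 30% or more across the dose series; inactive = the rest.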

These compounds were tested against Ubiquitin carboxyl-terminal hydrolase 30 (Homo sapiens) (UniProt Q70CQ3) (assay: inhibitors of ubiquitin-specific protease 30 deubiquitylating enzyme, concentration dependence, in vitro biochemical, validation of primary hits (AID 1645865)). Conditions: purified USP30, Ub-rhodamine cleavage, fluorescence, 2 h.
Chain of Ubiquitin carboxyl-terminal hydrolase 30 (Homo sapiens) (Q70CQ3 whole entry, looked up): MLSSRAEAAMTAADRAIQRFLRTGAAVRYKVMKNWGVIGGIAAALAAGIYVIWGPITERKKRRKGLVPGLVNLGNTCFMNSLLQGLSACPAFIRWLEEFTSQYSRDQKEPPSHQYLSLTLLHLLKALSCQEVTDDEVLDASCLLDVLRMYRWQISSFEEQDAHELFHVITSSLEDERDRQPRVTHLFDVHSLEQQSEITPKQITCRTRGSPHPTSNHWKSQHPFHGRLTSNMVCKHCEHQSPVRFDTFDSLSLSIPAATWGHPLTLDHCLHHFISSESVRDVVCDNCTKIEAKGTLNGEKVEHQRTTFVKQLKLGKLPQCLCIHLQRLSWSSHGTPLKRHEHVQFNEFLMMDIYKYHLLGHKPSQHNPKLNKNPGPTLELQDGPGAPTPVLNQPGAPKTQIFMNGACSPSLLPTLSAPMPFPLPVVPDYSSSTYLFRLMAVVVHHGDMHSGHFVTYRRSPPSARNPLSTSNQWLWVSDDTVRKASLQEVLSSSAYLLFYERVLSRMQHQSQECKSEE

Row | SMILES | IC50
1 | Cc1cc(C)c2nc3c(cc2c1)CN(Cc1ccco1)C(=O)O3 | > 50 µM (inactive)
2 | COc1cccc2c1NC(=O)C21CCN(C(=O)Nc2cccc(C)c2)CC1 | 16.3 µM
3 | Cc1c(CC(=O)Nc2nn[nH]n2)c(=O)oc2cc3c(cc12)CCC1(CCCCC1)O3 | > 50 µM (inactive)
4 | Cc1cc(Cl)ccc1NC(=O)c1cc(-c2cccnc2)n[nH]1 | > 50 µM (inactive)
5 | CC1CCN(c2cc(-n3cnc(C(=O)N4CCCC(C)C4)c3)ncn2)CC1 (centres undefined) | > 50 µM (inactive)
6 | NC(=O)c1nc(-c2cccc(F)c2)nc2c1[nH]c(=O)n2C1CCCCC1 | 3.78 µM
7 | O=C(/C=C/C=C/C=C/C1CCCCC1)NC1=C[C@@](O)(/C=C/C=C/C=C/C(=O)NC2=C(O)CCC2=O)[C@@H]2O[C@@H]2C1=O | > 50 µM (inactive)
8 | CCc1c(Cl)c(O)c(Cl)c(O)c1C(=O)O[C@H]1C(C)O[C@@H](OC/C2=C\C=C\CC(O)/C(C)=C/C(CC)C(O[C@@H]3OC(C)(C)[C@H](O)C(OC(=O)C(C)C)[C@@H]3O)/C(C)=C/C(C)=C/CC(C(C)O)OC2=O)[C@@H](OC)C1O (some centres undefined) | > 50 µM (inactive)
9 | Nc1c(-c2ccc(Cl)cc2)cnc2nc(Sc3ncc(C(F)(F)F)cc3Cl)nn12 | > 50 µM (inactive)
10 | O=C(Nc1ccc2c(c1)OCCO2)c1ccc(N2CCCCC2)nn1 | > 50 µM (inactive)
11 | O=C1c2c(O)cccc2C2(Oc3cccc4cccc(c34)O2)C2OC12 (centres undefined) | 31.8 µM
12 | Cc1ccccc1Cc1nc(-c2ccc(=O)[nH]c2)no1 | > 50 µM (inactive)
13 | Cc1cc(C(=O)Nc2ccc3c(c2)OCCO3)no1 | > 50 µM (inactive)
14 | CC1CCc2c(sc3nc(CC#N)[nH]c(=O)c23)C1 (centres undefined) | > 50 µM (inactive)
15 | CCN(C(=O)c1cc2c(Cl)nc3ccccc3c2s1)c1ccccc1F | > 50 µM (inactive)
16 | O=[N+]([O-])c1cccc(CSc2nnc(/C=C/c3ccccc3)o2)c1 | > 50 µM (inactive)
17 | C[C@@]12c3ccc4c(c3C(=O)c3occ(c31)C(O)C[C@H]2O)CCC4=O (some centres undefined) | > 50 µM (inactive)
18 | Cc1cc(NC(=O)c2[nH]nc3c2CCc2ccccc2-3)no1 | 4.47 µM
19 | COC1=CC(=O)c2c(O)c3c(c(C)c2C1=O)C[C@@]1(O)[C@H](O[C@H]2CC[C@H](O[C@H]4C[C@@](C)(O)[C@H](OC(=O)c5c(C)ccc(C)c5O)[C@H](C)O4)[C@@H](C)O2)C(=O)C(C(C)=O)=C(O)[C@@]1(O)C3=O | 4.74 µM
20 | CN1CCN(c2ncnc3c2oc2ccc(Cl)cc23)CC1 | > 50 µM (inactive)

Now from value to compound:

Row | IC50 | SMILES
21 | > 50 µM (inactive) | CCn1c(=O)c2ccccc2n(Cc2nc(-c3ccccc3OC)no2)c1=O
22 | 18.1 µM | CCC(=O)Nc1ccccc1-c1nc2ccccc2n(CC(=O)Nc2cc(OC)ccc2OC)c1=O
23 | 8.5 µM | Cc1cc(C)c2cc(C(=O)NC3CCN(Cc4ccccc4)CC3)[nH]c2c1
24 | 8.81 µM | Cc1ccc2c(c1)c(=O)c(C(=O)c1ccccc1)cn2CC(=O)Nc1ccccc1
25 | 29.7 µM | CC1CCN(S(=O)(=O)c2ccc(C(=O)Nc3ccc(S(N)(=O)=O)cc3)cc2)CC1
26 | > 50 µM (inactive) | COc1ccc(C2CC(c3ccccc3)N(C(=O)C3CC3)c3ncnn32)cc1 (centres undefined)
27 | > 50 µM (inactive) | COc1ccccc1OCC(=O)Nc1ccc2c(c1)CCC(=O)N2Cc1ccccc1
28 | > 50 µM (inactive) | Cc1cc(-c2cnc(N(C)C)nc2-c2ccc(CNC(=O)Cc3ccc(F)cc3)cc2)on1
29 | 24.6 µM | COc1cccc(C(=O)Nc2ccc(-n3cnnn3)cc2)c1
30 | 10.2 µM | CCOc1ccc2[nH]c(=O)c(CN(C(=O)c3cccs3)C3CCCC3)cc2c1
31 | 2.42 µM | O=C(Cn1c(=O)n(CC(=O)NC2CCCC2)c(=O)c2ccccc21)Nc1cc(Cl)ccc1Cl
32 | 25.3 µM | O=C(Nc1ccccc1)C1CCCN(C(=O)c2cc3ccccc3[nH]2)C1 (centres undefined)
33 | 4.05 µM | C[C@@H](C(=O)NCc1ccc(F)cc1)N1C(=O)N2CCc3c([nH]c4ccccc34)[C@@]2(C)C1=O
34 | 22.9 µM | CC(C)c1ccc(C(C(=O)NC2CCCCC2)N(C(=O)c2cnccn2)c2cccc(F)c2)cc1 (centres undefined)
35 | > 50 µM (inactive) | Cc1ccc(-c2nnc(-n3ncc(C#N)c3N)c3ccccc23)cc1C
36 | 22.9 µM | COCCNC(=O)c1ccc(-c2ccc(N3CCCCC3)nc2)cc1
37 | 31.9 µM | COc1ccc(-n2cc(C(=O)NCc3ccc4c(c3)OCO4)c3ccccc3c2=O)cc1
38 | > 50 µM (inactive) | COc1ccc(C(=O)N2CCCC3(C2)Nc2cccnc2NC3=NC2CCCC2)cn1 (centres undefined)
39 | > 50 µM (inactive) | CCOc1ccccc1NC(=O)Cn1c(-c2ccc3c(c2)OCO3)cn(-c2ccc(OC)cc2)c1=O
40 | > 50 µM (inactive) | O=C(c1ccc2occc2c1)N1CCC(S(=O)(=O)c2ccc(-c3ccco3)cc2)CC1
41 | 10.7 µM | COc1ccc(C(=O)Nc2nc3n(n2)C(c2ccccc2)CC(=O)N3)cc1 (centres undefined)
42 | > 50 µM (inactive) | COc1ccc(C2CC(c3ccc(C)cc3)N(C(=O)C3CC3)c3ncnn32)cc1 (centres undefined)
43 | > 50 µM (inactive) | Cc1nc2cccnc2n1C1CCN(C(=O)c2cc3cc(Cl)ccc3[nH]2)C1 (centres undefined)
44 | 0.687 µM | Cc1ccccc1NC(=O)Nc1ccccc1OCc1cc(=O)n2cccc(C)c2n1
